Assay results reported in PubChem BioAssay AID200 (DTP/NCI, 2004).
Several values for one entry are separate records, joined by “and”; a condition that tells them apart may be missing. Equal values may be shown once. Toxic doses and inconclusive results are not listed.

Tested on: B6C3F1 mice, B16 melanoma ip, median survival T/C
Assay: NCI In Vivo Anticancer Drug Screen. Data for tumor model B16 Melanoma (intraperitoneal) in B6C3F1 mice
Conditions: endpoint: median survival time, higher = longer survival
Outline: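 Readout: survival or tumor size in treated mice relative to vehicle controls (T/C). Model uses transplantable tumors grown in mice.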

[1] = dose: 50.0 mg/kg/injection, schedule: Q01DX009 (ip), vehicle: saline with Tween-80
[2] = dose: 25.0 mg/kg/injection, schedule: Q01DX009 (ip), vehicle: saline with Tween-80
[3] = dose: 100.0 mg/kg/injection, schedule: Q01DX009 (ip), vehicle: saline with Tween-80
[4] = dose: 200.0 mg/kg/injection, schedule: Q01DX009 (ip), vehicle: saline with Tween-80
[5] = dose: 400.0 mg/kg/injection, schedule: Q01DX009 (ip), vehicle: saline with Tween-80
[6] = dose: 25.0 mg/kg/injection, schedule: Q01DX009 (ip), vehicle: saline
[7] = dose: 50.0 mg/kg/injection, schedule: Q01DX009 (ip), vehicle: saline
[8] = dose: 100.0 mg/kg/injection, schedule: Q01DX009 (ip), vehicle: saline

In the case of `O=S(=O)(SC(S(=O)(=O)c1ccccc1)S(=O)(=O)c1ccccc1)c1ccccc1`, the T/C (dose: 12.5 mg/kg/injection, schedule: Q01DX009 (ip), vehicle: Klucel (hydroxypropylcellulose) (HPC)) is reported as 109 % of control, the T/C (dose: 25.0 mg/kg/injection, schedule: Q01DX009 (ip), vehicle: Klucel (hydroxypropylcellulose) (HPC)) is reported as 115 % of control and the T/C (dose: 50.0 mg/kg/injection, schedule: Q01DX009 (ip), vehicle: Klucel (hydroxypropylcellulose) (HPC)) is reported as 114 % of control. For the same molecule, the T/C (dose: 100.0 mg/kg/injection, schedule: Q01DX009 (ip), vehicle: Klucel (hydroxypropylcellulose) (HPC)) was 107 % of control, the T/C (dose: 200.0 mg/kg/injection, schedule: Q01DX009 (ip), vehicle: Klucel (hydroxypropylcellulose) (HPC)) was 106 % of control and the T/C (dose: 400.0 mg/kg/injection, schedule: Q01DX009 (ip), vehicle: Klucel (hydroxypropylcellulose) (HPC)) was 98 % of control.

With `C/C1=C/C(C)C(O)C(O)C(=O)C2(C)CNC3=C(O2)C(=O)c2c(cc(C)c(O)c2C1=O)C3=O` (centres undefined) the T/C (dose: 4.0 mg/kg/injection, schedule: Q01DX009 (ip), vehicle: distilled water + Tween-80) was 103 % of control, the T/C (dose: 8.0 mg/kg/injection, schedule: Q01DX009 (ip), vehicle: distilled water + Tween-80) was 100 % of control and the T/C (dose: 16.0 mg/kg/injection, schedule: Q01DX009 (ip), vehicle: distilled water + Tween-80) was 105 % of control. For the same molecule, the T/C (dose: 32.0 mg/kg/injection, schedule: Q01DX009 (ip), vehicle: distilled water + Tween-80) was 103 % of control.

`COCC12CCC(OC)C34C5CC6(O)C(OC)CC(OC(C)=O)(C5C6OC(=O)c5ccccc5)C(C(OC)C13)C4N(C)C2` (centres undefined) was tested, and the T/C (dose: 15.0 micrograms/kg/injection, schedule: Q01DX009 (ip), vehicle: Klucel (hydroxypropylcellulose) (HPC)) was 92 % of control, the T/C (dose: 30.0 micrograms/kg/injection, schedule: Q01DX009 (ip), vehicle: Klucel (hydroxypropylcellulose) (HPC)) was 108 % of control and the T/C (dose: 60.0 micrograms/kg/injection, schedule: Q01DX009 (ip), vehicle: Klucel (hydroxypropylcellulose) (HPC)) was 96 % of control. For the same molecule, the T/C (dose: 120.0 micrograms/kg/injection, schedule: Q01DX009 (ip), vehicle: Klucel (hydroxypropylcellulose) (HPC)) was 99 % of control.

In the case of `COc1cc(NS(C)(=O)=O)ccc1Nc1c2ccccc2nc2ccccc12`, the T/C (dose: 0.5 mg/kg/injection, schedule: Q01DX009 (ip), vehicle: other) is reported as 166 % of control and 168 % of control, the T/C (dose: 1.0 mg/kg/injection, schedule: Q01DX005 (ip), vehicle: other) is reported as 195 % of control and the T/C (dose: 1.0 mg/kg/injection, schedule: Q01DX005 (iv), vehicle: other) is reported as 101 % of control. For the same molecule, the T/C (dose: 1.0 mg/kg/injection, schedule: Q01DX011 (ip), vehicle: saline with Tween-80) was 175 % of control, the T/C (dose: 2.0 mg/kg/injection, schedule: Q01DX005 (ip), vehicle: clinical formulation) was 177 % of control and the T/C (dose: 2.0 mg/kg/injection, schedule: Q01DX005 (iv), vehicle: clinical formulation) was 99 % of control. The T/C (dose: 2.0 mg/kg/injection, schedule: Q01DX005 (oral), vehicle: other) was 100 % of control, the T/C (dose: 2.0 mg/kg/injection, schedule: Q01DX009 (ip), vehicle: saline with Tween-80) was 193 % of control and the T/C (dose: 2.0 mg/kg/injection, schedule: Q01DX011 (ip), vehicle: saline with Tween-80) was 209 % of control. The T/C (dose: 4.0 mg/kg/injection, schedule: Q01DX005 (ip), vehicle: clinical formulation) was 275 % of control, the T/C (dose: 4.0 mg/kg/injection, schedule: Q01DX005 (oral), vehicle: other) was 104 % of control and the T/C (dose: 4.0 mg/kg/injection, schedule: Q01DX009 (ip), vehicle: saline with Tween-80) was 253 % of control. The T/C (dose: 4.0 mg/kg/injection, schedule: Q01DX009 (ip), vehicle: saline) was 187 % of control and 213 % of control and 222 % of control, the T/C (dose: 4.0 mg/kg/injection, schedule: Q01DX011 (ip), vehicle: saline with Tween-80) was 63 % of control and the T/C (dose: 4.0 mg/kg/injection, schedule: Q01DX011 (oral), vehicle: saline with Tween-80) was 98 % of control. For the same molecule, the T/C (dose: 8.0 mg/kg/injection, schedule: Q01DX001 (iv), vehicle: clinical formulation) was 105 % of control, the T/C (dose: 8.0 mg/kg/injection, schedule: Q01DX005 (oral), vehicle: other) was 103 % of control and the T/C (dose: 8.0 mg/kg/injection, schedule: Q01DX009 (ip), vehicle: saline with Tween-80) was 283 % of control. The T/C (dose: 8.0 mg/kg/injection, schedule: Q01DX011 (oral), vehicle: saline with Tween-80) was 92 % of control and the T/C (dose: 16.0 mg/kg/injection, schedule: Q01DX001 (iv), vehicle: clinical formulation) was 112 % of control.

`O=NNc1cnccn1` was tested, and the T/C (dose: 3.12 mg/kg/injection, schedule: Q01DX009 (ip), vehicle: water) was 120 % of control and 103 % of control and 106 % of control, the T/C (dose: 6.25 mg/kg/injection, schedule: Q01DX009 (ip), vehicle: water) was 109 % of control and 110 % of control and 114 % of control and the T/C (dose: 12.5 mg/kg/injection, schedule: Q01DX009 (ip), vehicle: water) was 113 % of control. For the same molecule, the T/C (dose: 25.0 mg/kg/injection, schedule: Q01DX009 (ip), vehicle: water) was 155 % of control and 158 % of control and 169 % of control and the T/C (dose: 50.0 mg/kg/injection, schedule: Q01DX009 (ip), vehicle: water) was 96 % of control.

With `CO[C@@]12[C@@H]3N[C@@H]3CN1C1=C(C(=O)C(N3CCCC3)=C(C)C1=O)[C@@H]2COC(N)=O` the T/C (dose: 3.12 mg/kg/injection, schedule: Q01DX009 (ip), vehicle: saline with Tween-80) was 327 % of control and the T/C (dose: 6.25 mg/kg/injection, schedule: Q01DX009 (ip), vehicle: saline with Tween-80) was 100 % of control.

With `O=C1C=C[C@H](O)[C@@]2(CO)O[C@@H]12` the T/C (dose: 0.31 mg/kg/injection, schedule: Q01DX009 (ip), vehicle: saline with Tween-80) was 98 % of control, the T/C (dose: 0.62 mg/kg/injection, schedule: Q01DX009 (ip), vehicle: saline with Tween-80) was 100 % of control and the T/C (dose: 1.25 mg/kg/injection, schedule: Q01DX009 (ip), vehicle: saline with Tween-80) was 102 % of control. For the same molecule, the T/C (dose: 2.5 mg/kg/injection, schedule: Q01DX009 (ip), vehicle: saline with Tween-80) was 109 % of control, the T/C (dose: 5.0 mg/kg/injection, schedule: Q01DX009 (ip), vehicle: saline with Tween-80) was 115 % of control and 93 % of control and the T/C (dose: 10.0 mg/kg/injection, schedule: Q01DX009 (ip), vehicle: saline with Tween-80) was 121 % of control.

With `Oc1cccc2ccccc12` the T/C (dose: 25.0 mg/kg/injection, schedule: Q01DX009 (sc), vehicle: other) was 97 % of control, the T/C (dose: 50.0 mg/kg/injection, schedule: Q01DX009 (sc), vehicle: other) was 94 % of control and the T/C (dose: 100.0 mg/kg/injection, schedule: Q01DX009 (sc), vehicle: other) was 100 % of control. The T/C (dose: 200.0 mg/kg/injection, schedule: Q01DX009 (sc), vehicle: other) was 92 % of control.

With `CN(C)CCNc1ccc(CO)c2sc3ccc(O)cc3c(=O)c12` the T/C (dose: 18.0 mg/kg/injection, schedule: Q01DX009 (ip), vehicle: saline with Tween-80) was 327 % of control, the T/C (dose: 30.0 mg/kg/injection, schedule: Q01DX009 (ip), vehicle: saline with Tween-80) was 218 % of control and the T/C [1] was 295 % of control. The T/C (dose: 83.33 mg/kg/injection, schedule: Q01DX009 (ip), vehicle: saline with Tween-80) was 327 % of control.

In the case of `NC(=O)c1cc(Cl)nc2nc(Cl)nc(N)c12`, the T/C [2] is reported as 92 % of control, the T/C [1] is reported as 101 % of control and the T/C [3] is reported as 86 % of control. The T/C [4] was 98 % of control and the T/C [5] was 106 % of control.

In the case of `O=C(O)C1Cc2nc[nH]c2CN1CO` (centres undefined), the T/C (dose: 12.5 mg/kg/injection, schedule: Q01DX009 (ip), vehicle: saline with Tween-80) is reported as 104 % of control, the T/C [2] is reported as 102 % of control and the T/C [1] is reported as 105 % of control. For the same molecule, the T/C [3] was 109 % of control, the T/C [4] was 106 % of control and the T/C [5] was 104 % of control.

For `CC(/C=N/N=C(N)N)=N\N=C(N)N`, the T/C [6] was 110 % of control, the T/C [7] was 111 % of control and the T/C [8] was 95 % of control.

`NC(CSC(c1ccccc1)(c1ccccc1)c1ccccc1)C(=O)O` (centres undefined) was tested, and the T/C (dose: 4.0 mg/kg/injection, schedule: Q01DX009 (ip), vehicle: Klucel (hydroxypropylcellulose) (HPC)) was 120 % of control and the T/C (dose: 16.0 mg/kg/injection, schedule: Q01DX009 (ip), vehicle: Klucel (hydroxypropylcellulose) (HPC)) was 124 % of control.

In the case of `CN(C)[C@@H]1C(=O)C(C(=O)NCN2CCN(C(=N)N=C(N)N)CC2)=C(O)[C@@]2(O)C(=O)C3=C(O)c4c(O)cccc4[C@@](C)(O)[C@H]3C[C@@H]12`, the T/C (dose: 0.31 mg/kg/injection, schedule: Q01DX009 (ip), vehicle: saline) is reported as 94 % of control, the T/C (dose: 0.62 mg/kg/injection, schedule: Q01DX009 (ip), vehicle: saline) is reported as 98 % of control and the T/C (dose: 1.25 mg/kg/injection, schedule: Q01DX009 (ip), vehicle: saline) is reported as 111 % of control and 103 % of control. For the same molecule, the T/C (dose: 2.5 mg/kg/injection, schedule: Q01DX009 (ip), vehicle: saline) was 90 % of control and 103 % of control and the T/C (dose: 5.0 mg/kg/injection, schedule: Q01DX009 (ip), vehicle: saline) was 101 % of control and 103 % of control.

`CCCCCCCCCCCCOP(N)(=O)OCCCCCCCCCCCC` was tested, and the T/C [6] was 100 % of control, the T/C [7] was 90 % of control and the T/C [8] was 89 % of control.
